The record followed here is patent US20230002346A1, “NEW COMPOUNDS AND METHODS” (BenevolentAl Bio Limited, priority 2019, published 2023).

The structures appear in SMILES notation. In brackets after ≈: the same amount, converted by molar mass.

Data set [1] is described as follows: Brain to plasma (B:P) ratio in rat. Conditions: male, Sprague Dawley, po, p.o. 3.0 mg/kg. It counts as in vivo, Sprague Dawley Rats. Here is the method:
Male Sprague Dawley Rats 300-350 g (Charles River, UK) were group housed, n=3, under a 12 h light/dark cycle with food and water available ad libitum. At 17:00 on the day prior to dosing all food was removed. On the day of dosing animals were weighed, tail marked and dosed via oral gavage with compound at 3 mg/kg in a volume of 5 mL/kg. Animals were culled at 30 min, 1 h and 4 h post dose via intra-peritoneal administration of pentobarbital. Post mortem blood was withdrawn via cardiac puncture, and briefly stored in K2 EDTA blood tubes on ice before being spun at 14,000 g for 4 min at 4° C. Plasma was withdrawn into a 96 well plate, placed on dry ice and stored at −80° C. Brains were quickly dissected and placed on dry ice before storage at −80° C. Bioanalysis of plasma and brain samples is performed as detailed below. Methods were prepared with guidance from industry standard documents.^i,ii […] Calibration lines are prepared in control male Sprague-Dawley Rat plasma at known concentrations in the range of 1-10000 ng/mL by spiking 2.5 μL of calibration spiking solution into 25 μL control plasma. Experimental samples are thawed to RT and 25 μL aliquots are extracted alongside the calibration lines using protein precipitation (agitation for at least 5 min at RT with 400 μL of MeCN containing 25 ng/mL tolbutamide as an internal standard). Protein precipitates are separated from the extracted test compound by centrifugation at 4000 rpm for 5 min, 4° C. […] Samples are analysed by UPLC-MS/MS on either an API6500 QTrap or Waters 30 TQS mass spectrometer using previously optimised analytical MRM (multiple reaction monitoring) methods, specific to the test compound. The concentration of test compound in isolated samples is determined following analysis of the samples against the two replicates of the calibration line, injected before and after the sample set with an appropriate regression and weighting used. Only samples within 20% of the expected test concentration are included in the calibration line and any samples that fall outside of the limits of the calibration line will be deemed to be less than or above the limit of quantification (LLoQ/ALoQ). […] Calibration lines are prepared in control male Sprague-Dawley Rat brain homogenate at known concentrations in the range of 3-30000 ng/g by spiking 2.5 μL of calibration spiking solution into 25 μL control homogenate. To prepare control and experimental brain homogenates, brains are thawed, weighed and a volume of diluent added (water) in the ratio of 2 mL per gram of brain. Homogenisation of brains is performed by bead-beater homogenisation using Precellys Evolution and CK14 7 mL small ceramic bead homogenisation tubes. Aliquots of 25 μL experimental sample are extracted alongside the calibration lines using protein precipitation (agitation for at least 5 min at RT with 400 μL of MeCN containing 25 ng/mL tolbutamide as an internal standard). Protein precipitates are separated from the extracted test compound by centrifugation at 4000 rpm for 5 min, 4° C. […] Samples are analysed by UPLC-MS/MS on either an API6500 QTrap or Waters TQS mass spectrometer using previously optimised analytical MRM (multiple reaction monitoring) methods, specific to the test compound. The concentration of test compound in isolated samples is determined following analysis of the samples against the two replicates of the calibration line, injected before and after the sample set with an appropriate regression and weighting used. Only samples within 20% of the expected test concentration are included in the calibration line and any samples that fall outside of the limits of the calibration line will be deemed to be less than or above the limit of quantification (LLoQ/ALoQ). Total brain to plasma (B:P) ratios were calculated by dividing the concentration in the brain by the concentration in plasma for each timepoint. The mean brain to plasma ratio is calculated by averaging these brain to plasma ratios across certain timepoints. […]

Data set [2] is described as follows: Kinetic aqueous solubility assay. It counts as physicochemical. The settings on record: aqueous buffer, kinetic from dmso stock, 0.05M potassium phosphate buffer pH 7.4, 250 μM spike, RT. The protocol: Using a 10 mM stock solution of test compound in 100% DMSO, test compounds were spiked into 0.05M potassium phosphate buffer (pH 7.4) at a final concentration of 250 μM. Samples in buffer (n=2 aqueous samples, in 96-well plates) were allowed to equilibrate at RT on an orbital shaker for 30 min (300 rpm) to induce precipitation of test compounds. The appearance of each sample was determined by visual examination and noted (clear, cloudy, precipitate observed etc.). […] The concentration of compound in phosphate buffer filtrate was determined by comparing the UV absorbance peak area of each replicate against that of the calibration standards. […] Compounds of the invention have much improved solubility compared to the reference examples.

The target of the next data set is T1, hERG channel (Homo sapiens, UniProt Q12809).
T1 construct: expressed in transfected cells
T1 sequence (Q12809 whole entry): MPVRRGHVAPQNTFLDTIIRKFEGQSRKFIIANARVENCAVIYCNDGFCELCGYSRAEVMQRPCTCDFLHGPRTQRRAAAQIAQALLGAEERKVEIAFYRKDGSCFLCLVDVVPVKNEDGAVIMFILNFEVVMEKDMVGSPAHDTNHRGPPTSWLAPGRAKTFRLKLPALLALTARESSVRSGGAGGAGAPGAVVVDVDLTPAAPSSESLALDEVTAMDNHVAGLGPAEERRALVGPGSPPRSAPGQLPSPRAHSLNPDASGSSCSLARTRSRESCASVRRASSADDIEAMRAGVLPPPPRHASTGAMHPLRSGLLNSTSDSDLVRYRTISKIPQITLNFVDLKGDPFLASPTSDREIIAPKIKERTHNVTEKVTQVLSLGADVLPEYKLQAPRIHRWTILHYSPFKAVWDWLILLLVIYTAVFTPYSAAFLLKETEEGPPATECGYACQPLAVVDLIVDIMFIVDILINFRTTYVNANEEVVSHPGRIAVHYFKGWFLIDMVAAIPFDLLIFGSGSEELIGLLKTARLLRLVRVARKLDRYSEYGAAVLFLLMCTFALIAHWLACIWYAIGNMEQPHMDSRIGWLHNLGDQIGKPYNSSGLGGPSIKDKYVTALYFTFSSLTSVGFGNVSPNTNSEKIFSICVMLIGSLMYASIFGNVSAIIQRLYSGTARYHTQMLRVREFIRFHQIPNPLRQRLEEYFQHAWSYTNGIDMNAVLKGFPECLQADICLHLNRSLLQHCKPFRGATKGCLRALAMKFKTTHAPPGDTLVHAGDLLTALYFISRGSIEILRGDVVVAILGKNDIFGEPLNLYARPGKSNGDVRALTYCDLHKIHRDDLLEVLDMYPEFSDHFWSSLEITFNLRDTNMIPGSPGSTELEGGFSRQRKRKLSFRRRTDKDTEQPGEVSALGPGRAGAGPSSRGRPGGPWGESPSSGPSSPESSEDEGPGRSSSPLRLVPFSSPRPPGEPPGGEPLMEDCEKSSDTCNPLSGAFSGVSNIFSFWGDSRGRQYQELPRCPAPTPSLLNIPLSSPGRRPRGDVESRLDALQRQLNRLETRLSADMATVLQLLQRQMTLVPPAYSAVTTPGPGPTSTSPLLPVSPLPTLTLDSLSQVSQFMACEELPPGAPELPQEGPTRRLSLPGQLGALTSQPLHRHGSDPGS
The data set is described as follows: hERG assay (QPatch automated patch clamp, CHO cells). It counts as cell-based. The settings on record: CHO cells expressing hERG, whole-cell patch clamp, 0.003 μM to 10 μM. An excerpt: The human ether-a-go-go related gene (hERG) potassium channel (Kv11.1) contributes to human cardiac action potential repolarisation. Inhibition of hERG channels can prolong the human cardiac action potential, resulting in QTc prolongation and potentially lethal arrhythmias (e.g. Torsade de Pointes).
Test samples were screened against the hERG channel on a QPatch 48 gigaseal automated patch clamp platform, using a Chinese Hamster Ovary (CHO) cell line stably expressing the human ether-á-go-go related gene, which encodes the hERG channel. All recordings were made in the conventional whole-cell configuration and performed at RT ([…]) using standard single hole chips (Rchip 1.5-4M0). Series resistance (4-15Mc) was compensated by >80%. Currents were elicited from a holding potential of −90 mV using the industry standard “^+40/−40” voltage protocol, which was applied at a stimulus frequency of 0.1 Hz. On achieving the whole-cell configuration, vehicle (0.1% DMSO v/v in external recording solution) was applied to each cell in two bolus additions with a 2 min recording period between each addition. Following the vehicle period, eight increasing concentrations of test sample were applied from 0.003 μM to 10 μM as a single bolus addition per test concentration, and the effects on hERG tail current amplitude measured during the 2 min recording period. Each eight-point concentration-response curve was constructed using cumulative single sample additions of each concentration to the same cell. The positive control used in this study was verapamil hydrochloride (Tocris, Cat #0654, Batch #5A/61673) and prepared to a stock concentration of 10 mM in 100% DMSO and kept as frozen aliquots.
Data analysis: All cells passing the QC parameters (i.e. >200 pA outward current, membrane resistance and rundown) are selected as ‘passed QC’ using the QPatch software, which then calculates the mean peak current for the last three sweeps at the end of each concentration application period from the cursor positions defined. Percent inhibition is calculated for each test concentration application period as the reduction in mean cursor value (peak current or charge) relative to the cursor value measured at the end of the control (i.e. vehicle) period. The percent inhibition values from each cell are used to construct concentration-response curves employing a four parametric logistic fit with 0 and 100% inhibition levels fixed at very low and very high concentrations, respectively, and a free Hill slope factor. The IC50 (50% inhibitory concentration) and Hill coefficient are then determined, but only data from cells with Hill slopes within 0.5>nH<2.0 are included. The IC50 data reported below represents the mean (and S.D.) of at least three separate cells (N≥3). […] Compounds of the invention show reduced hERG inhibitory activity compared to the reference examples.
(In general: hERG is a cardiac potassium channel; its block is linked to QT prolongation.)

The test system of data set [3] is Salmonella typhimurium, strains TA98 and TA100. In words: Ames assay (Bacterial Reverse Mutation Test). It counts as cell-based. Conditions: TA98 and TA100, presence and absence of S-9 mix, up to 5000 μg/plate. Here is the method:
Examples 50, 52 and 54 were tested, in vitro, for their ability to induce mutations in 2 histidine dependent auxotrophic mutants of Salmonella typhimurium, strains TA98 and TA100. The mutation screen was conducted using the plate incorporation method and was performed in both the presence and absence of S-9 mix (a liver post-mitochondrial fraction derived from the livers of Aroclor 1254 treated rats). The bacteria were exposed to the test items dissolved in DMSO, which was also the negative Control. The test items were tested up to the regulatory maximum dose level. The dose levels used were 5, 15, 50, 150, 500, 1500 or 5000 μg/plate, unless the highest treatment level of the test items was limited by solubility, or toxicity against the background bacterial lawn. Dose levels were expressed in terms of the free base.
There were no increases of 2-fold or greater in revertant numbers compared with negative Control values in either strain at any dose level in the presence or absence of S-9 mix, so Examples 50, 52 and 54 were not mutagenic in the Bacterial Reverse Mutation (i.e. Ames) Test under the conditions of this screen.
(In the Ames test, an excess of revertant colonies over the control signals mutagenicity.)

The test system of data set [4] is 87 targets across GPCRs, ion channels, and enzymes. The data set is described as follows: Eurofins SafetyScreen panel. The settings on record: top concentration of 10 μM. An excerpt: Example 50 was screened against the Eurofins SafetyScreen™ panel of 87 targets across GPCRs, ion channels, and enzymes.
Where [5] appears, read: 30% HPBC in water, timepoints averaged 0.5-4 h.

Take `O=C(Nc1ccc(OC(F)(F)Cl)cc1)c1ccc(=O)n(-c2ccc(F)cc2)c1` [Example 42, N-[4-(Chlorodifluoromethoxy)phenyl]-1-(4-fluorophenyl)-6-oxo-1,6-dihydropyridine-3-carboxamide]: in data set [1] (setting [5]), the Kp was found to be 0.98. Further, in data set [2], the solubility at 30 min came out at 120 µM (≈ 49.1 µg/mL).
With `COc1cccc(-n2cc(C(=O)Nc3ccc(OC(F)(F)Cl)cc3)ccc2=O)c1` [Example 35, N-[4-(Chlorodifluoromethoxy)phenyl]-1-(3-methoxyphenyl)-6-oxo-1,6-dihydropyridine-3-carboxamide], the Kp at 1 h in data set [1] (30% HPBC in water, timepoint 1 h) is 1.11. For the same compound, at hERG channel, the IC50 is > 10 µM.
On to `Cn1cc(-n2cc(C(=O)Nc3ccc(OC(F)(F)Cl)cc3)ccc2=O)cn1` [Example 52, N-[4-[Chloro(difluoro)methoxy]phenyl]-1-(1-methylpyrazol-4-yl)-6-oxo-pyridine-3-carboxamide], for which the “mutagenicity in the Bacterial Reverse Mutation (Ames) Test” value in data set [3] is listed as “not mutagenic”. The IC50 against hERG channel is > 10 µM. In addition, the solubility at 30 min in data set [2] was 160 µM (≈ 63.2 µg/mL).
Consider `O=C(Nc1ccc(OC(F)(F)Cl)cc1)c1ccc(=O)n(-c2ccc(F)c(F)c2)c1` [Example 24, N-[4-(Chlorodifluoromethoxy)phenyl]-1-(3,4-difluorophenyl)-6-oxo-1,6-dihydropyridine-3-carboxamide], for which the Kp in data set [1] (setting [5]) turned out to be 0.68. For the same compound, the IC50 against hERG channel is > 10 µM.
Take `COc1cncc(-n2cc(C(=O)Nc3ccc(OC(F)(F)Cl)cc3)ccc2=O)c1` [Example 61, N-[4-[Chloro(difluoro)methoxy]phenyl]-1-(5-methoxy-3-pyridyl)-6-oxo-pyridine-3-carboxamide]: the Kp in data set [1] (setting [5]) is 0.45. Also, on hERG channel, the IC50 is > 10 µM. Besides, the solubility at 30 min in data set [2] came to 160 µM (≈ 67.5 µg/mL).
With `COc1ccc(-n2cc(C(=O)Nc3ccc(OC(F)(F)Cl)cc3)ccc2=O)cn1` [Example 13, N-[4-[Chloro(difluoro)methoxy]phenyl]-1-(6-methoxy-3-pyridyl)-6-oxo-pyridine-3-carboxamide], the Kp in data set [1] (setting [5]) was 0.79.
With `Cc1ccc(-n2cc(C(=O)Nc3ccc(OC(F)(F)Cl)cc3)ccc2=O)cn1` [Example 65, N-[4-(Chlorodifluoromethoxy)phenyl]-6′-methyl-2-oxo-2H-[1,3′-bipyridine]-5-carboxamide], in data set [1] (setting [5]), the Kp was 0.31. In data set [2], the solubility at 30 min amounted to 170 µM (≈ 69 µg/mL).
Regarding `Cn1cc(C(=O)Nc2ccc(OC(F)(F)Cl)cc2)cc(-c2ccccc2)c1=O` [Example 88, N-[4-[Chloro(difluoro)methoxy]phenyl]-1-methyl-6-oxo-5-phenyl-pyridine-3-carboxamide], the Kp in data set [1] (setting [5]) stood at 0.69.
As for `O=C(Nc1ccc(OC(F)(F)Cl)cc1)c1ccc(=O)n(-c2cccc(F)c2)c1` [Example 47, N-[4-(Chlorodifluoromethoxy)phenyl]-1-(3-fluorophenyl)-6-oxo-1,6-dihydropyridine-3-carboxamide], in data set [1] (setting [5]), the Kp was determined as 1.54. Moreover, on hERG channel, the IC50 was > 10 µM.
For `O=C(Nc1ccc(OC(F)(F)Cl)cc1)c1ccc(=O)n(-c2cncc(Cl)c2)c1` [Example 63, N-[4-[Chloro(difluoro)methoxy]phenyl]-1-(5-chloro-3-pyridyl)-6-oxo-pyridine-3-carboxamide], the Kp in data set [1] (setting [5]) stood at 0.64. Further, the IC50 at hERG channel is > 10 µM. In data set [2], the solubility at 30 min was determined as 120 µM (≈ 51.1 µg/mL).
Regarding `O=C(Nc1ccc(OC(F)(F)F)cc1)c1ccc(=O)n(-c2cncnc2)c1` [Example 50, 6-Oxo-1-(pyrimidin-5-yl)-N-[4-(trifluoromethoxy)phenyl]-1.6-dihydropyridine-3-carboxamide], the “mutagenicity in the Bacterial Reverse Mutation (Ames) Test” value in data set [3] is given as “not mutagenic”. In addition, the IC50 against hERG channel was > 10 µM. Further, the “number of 87 targets inhibited >50%” value in data set [4] came to 2. This compound also had a maximum inhibition in data set [4] (87 targets) of 65%.
With `O=C(Nc1ccc(OC(F)(F)Cl)cc1)c1ccc(=O)n(-c2cccnc2)c1` [Example 53, N-[4-[Chloro(difluoro)methoxy]phenyl]-6-oxo-1-(3-pyridyl)pyridine-3-carboxamide], the Kp in data set [1] (5% NMP in 30% HPBC in water, timepoints averaged 0.5-1 h) amounted to 0.82. Further, the IC50 against hERG channel is > 10 µM. In data set [2], this compound showed a solubility at 30 min of 170 µM (≈ 66.6 µg/mL).

For orientation: Kp means tissue or fluid exposure divided by exposure in the circulation. The solubility is the concentration that dissolves in the medium under given conditions. In general, IC50 refers to the concentration that inhibits the measured activity by half. Higher therefore signals lower potency.
